Values of other authors as cited in patent US4665052A, “Renin inhibitors containing homophe^8 and a C-terminal amide cycle” (Merck & Co., Inc., priority 1984, dated 1987).

Experiments:
[1] = system: aspartyl proteases such as pepsin, cathepsin D, and renin; details: selectivity
hog renin = details: after injection of hog renin into nephrectomized rats; Gross et al. 1971

In the case of pepstatin, the “inhibition of other acid proteases in addition to renin” value [1] is given as “inhibition of a variety of other acid proteases in addition to renin” and the “blood pressure in vivo” value (hog renin) is given as “reduce blood pressure in vivo”.
